System: Raw 264.7 cells
Assay: Inhibition of LDH release from Ox-LDL-oxidised Raw 264.7 cells (WST absorbance)
Type: cell-based
Settings: Ox-LDL 100 μg/mL, compared to the positive control group (LDH release rate 30%)
Experimental: To confirm the anti-oxidative effect of the compounds according to the present invention, the amount of lactate dehydrogenase (LDH), which is a material released from cells killed or damaged by oxidation, was measured by measuring the absorbance using water soluble tetrazolium salt (WST) to measure cytotoxicity. Specifically, Raw 264.7 cells, in which oxidation was induced with 100 μg/mL of oxidized low-density lipoprotein (Ox-LDL), were treated with test materials (2 kinds of comparative groups and 2 kinds of experimental groups) at 1 μM and 10 μM concentrations, respectively, and their ability to inhibit LDH release (i.e., a standard indicator of anti-oxidative effects) was confirmed. As reference, the LDH release rate in the negative control group in which no treatment was made was 7% and the LDH release rate in the positive control group treated with only Ox-LDL was 30%.

CC(=O)N[C@@H](CS)C(=O)O [NAC, N-acetyl-L-cysteine]
decrease of LDH release rate (1 μM): 6%
decrease of LDH release rate (10 μM): 13%

CC(=O)NC(CSCCCSCC(N)C(=O)O)C(=O)O (centres unmarked) [Newcompound-1, 2-acetamido-3-(3-(2-amino-2-carboxyethylthio)propylthio)propanoic acid]
decrease of LDH release rate (1 μM): 12%
decrease of LDH release rate (10 μM): 21%

CC(=O)NC(CSCCCSCC(NC(C)=O)C(=O)O)C(=O)O (centres unmarked) [Newcompound-2, 2,14-dioxo-6,10-dithia-3,13-diazapentadecan-4,12-dicarboxylic acid]
decrease of LDH release rate (1 μM): 11%
decrease of LDH release rate (10 μM): 20%

C=CCSC[C@H](N)C(=O)O [SAC, S-allyl-L-cysteine]
decrease of LDH release rate (1 μM): 7%
decrease of LDH release rate (10 μM): 16%

— patent US10730829B2, “Compound exhibiting anti-oxidative or anti-inflammatory activity” (University-Industry Cooperation Group of Kyung Hee …, priority 2016, dated 2020)
